Data taken from patent US20020107231A1, “Remedy for autoimmune diseases” (priority 1992, published 2002).
Where a name gives a salt, the structure may show the parent alone.

How the values were obtained:
Assay type in all cases: in vivo, mouse
[1] = test system: MRL/Mp-lpr/lpr mice; assay: Suppression of renal disorder (glomerulonephritis score, BUN) of MRL/Mp-lpr/lpr mice; details: 100 mg/kg orally once a day for 13 weeks
Experimental: (§1) Eight-week old female MRL/Mp-lpr/lpr mice (Clea Japan, Inc.) were used in this examination. Toremifene citrate (JP-B-4 19973) was suspended in carboxymethylcellulose to prepare a 0.5% suspension. This compound (100 mg/kg) was orally administered to each mouse once a day for 13 weeks.
An autopsy was performed on the mice of the control group and the toremifene citrate treated group after the completion of the administration to examine their kidneys pathohistologically. The blood urea nitrogen (BUN) of the serum in each group was examined to confirm changes in the renal function.
1) The kidney was fixed in 10% buffered formalin, and then paraffin sections thereof were prepared by an ordinary method to prepare HE and PAS stained specimens. The extent of the disorder of the renal glomeruli was scored and classified into the following groups:
2) The BUN was determined with a Fuji Dry Chem Analyzer.

[2] = test system: MRL/Mp-lpr/lpr mice; assay: Inhibition of swelling of spleen and lymph node of MRL/Mp-lpr/lpr mice; details: 100 mg/kg orally once a day for 13 weeks
Experimental: as §1

[3] = test system: NZB×NZW mice (B/W F1 mice); assay: Comparison of survival time of NZB×NZW F1 mice; details: for animals alive after one year / animals died at/before the age of 40 weeks / animals still alive after almost two years' time: female mice; for animals alive after one year: female control 20%; for animals died at/before the age of 40 weeks: female control 50% died
Experimental: NZB×NZW mice (B/W F1 mice) were used as a pathological model of autoimmune diseases (systemic lupus erythematodes). Effect of toremifene citrate on the survival time of the animals was investigated.
F1-hybrids of NZB (female) and NZW (male) mice (B/W F1 mice): Imported from Bomholtgaard, Denmark at the age of five weeks.
Toremifene citrate 30 mg/kg/day: administration 70 mg/kg in polyethylene glycol solution 3 times a week per os to female NZB×NZW F1 mice
Toremifene citrate 3 mg/kg/day: administration 7 mg/kg in polyethylene glycol solution 3 times a week per os to female NZB×NZW F1 mice
All but two female control animals have died during the almost two years' follow-up time. Fifty percents of the animals in this group died before/at the age of 40 weeks, and 20% (4/20) were alive after one year.

[4] = test system: MRL/Mp-lpr/lpr mice; assay: Suppression of glomerulonephritis (Mac 2 number per glomerulus) by concomitant use of toremifene citrate with glucocorticoid; details: for change in Mac 2 number as compared with the control (in words): all dose groups, 9 weeks, t-test
Experimental: Twelve-week old female MRL/Mp-lpr/lpr mice were used in the examination. Thirty miligrams per kg or 15 mg/kg of toremifene citrate (TOR) was orally administered to each mouse twice a day for 9 weeks from the 12th week to the 21st week. A glucocorticoid (prednisolone), 8, 4 and 2 mg/kg/day, were subcutaneously administered to mice once a day as a positive control drug. The concomitant use of tremifene with the glucocorticoid was also carried out according to the same regimen as above. The kidney was taken out from each mouse the day after the completion of the whole administration period and fixed in a PLP fixative. Frozen sections were made from the fixed kidney and used for an immunostaining with an anti-Mac-2 monoclonal antibody (Hybritec Inc., San Diego, USA). The number of Mac-2 positive cells (activated macrophages) invading each of 10 to 20 glomeruli of the kidney, which is hereinafter referred to as Mac 2 number, was counted under a microscopy to determine an average Mac 2 number per glomerulus. The degree of severeness of glomerulonephritis was estimated in terms of the average Mac 2 number (n=13 for each group).

[5] = test system: MRL/Mp-lpr/lpr mice; assay: Inhibition of sialadenitis, angitis and arthritis of MRL/Mp-lpr/lpr mice (histopathology); details: 100 mg/kg orally once a day for 13 weeks
Experimental: as §1
The salivary gland, renal blood vessel and knee joint of each mouse in the control group and the toremifene citrate treated group were histopathologically examined.
1) The salivary gland, kidney and knee joint were fixed in 10% buffered formalin, and then paraffin sections thereof were prepared by an ordinary method to prepare HE and PAS stained specimens. The extent of the disorder was scored and classified into the following groups: […]

[6] = 3 mg/kg/day (7 mg/kg 3 times a week per os)
[7] = 30 mg/kg/day (70 mg/kg 3 times a week per os)

For `CN(C)CCOc1ccc(/C(=C(/CCCl)c2ccccc2)c2ccccc2)cc1` [Toremifene citrate, 2[4-(Z)-4-Chloro-1,2-Diphenyl-1-Butenyl]Phenoxy-N,N-Dimethylethylamine Citrate], which “glomerulonephritis (in words)” value [1] is on record?
The value was “ameliorated the glomerulonephritis”.

What about the “renal function (in words)” value [1] of the same compound?
The value was “healed the renal function”.

What about the “Glomerulonephritis (score 0-3, average of 25 renal glomeruli)” value ([1]; mean ± standard deviation, control 2.4 ± 0.7) of the same compound?
The value was 1.2 ± 0.7.

And the BUN ([1]; serum, mean ± standard deviation, control 43.1 ± 23.9)?
The BUN was 24.6 ± 4.9 mg/dL.

What about the “swelling of the spleen and lymph node (in words)” value [2] of the same compound?
The value was “inhibited the swelling of the spleen and lymph node”.

And the “swelling of spleen ([formula])” value ([2]; 8-week old female mice, mean ± standard deviation, control 2.34 ± 0.74)?
Its value is 1.38 ± 1.06.

And the “swelling of lymph node ([formula])” value ([2]; 8-week old female mice, mean ± standard deviation, control 6.77 ± 1.70)?
Its value is 3.11 ± 1.43.

What about the “animals alive after one year” value [3, 6] of the same compound?
The value was 80%.

And the “animals died at/before the age of 40 weeks” value [3, 6]?
The value was 1/20.

What about the “animals alive after one year” value [3, 7] of the same compound?
Its value is 85%.

And the “animals died at/before the age of 40 weeks” value [3, 7]?
Its value is 3/20.

What about the “life span compared to the female control animals (in words)” value ([3]; both treatment groups (3 and 30 mg/kg/day)) of the same compound?
The value was “lengthened clearly”.

And the “animals still alive after almost two years' time” value ([3]; higher dosage group (30 mg/kg/day))?
The value was 10%.

And the “animals still alive after almost two years' time” value ([3]; lower dosage group (3 mg/kg/day))?
Its value is 25%.

And the “Mac 2 number” value ([4]; TOR 15 mg/kg orally twice a day for 9 weeks, first series, control 7.5 ± 1.5)?
Its value is 6.5 ± 1.2.

And the “Mac 2 number” value ([4]; TOR 30 mg/kg orally twice a day for 9 weeks, first series, control 7.5 ± 1.5)?
The value was 6.2 ± 1.0.

What about the “change in Mac 2 number as compared with the control (in words)” value [4] of the same compound?
Its value is “did not exhibit any significant decrease in Mac 2 number”.

And the “attack by sialadenitis, angitis and arthritis (in words)” value [5]?
Its value is “prevented the mice from being attacked by sialadenitis, angitis and arthritis”.

And the “Arthritis (score 0-3)” value ([5]; knee joint, mean ± standard deviation, control 1.6 ± 0.9)?
The value was 0.4 ± 0.5.

What about the “Angitis (score 0-3)” value ([5]; renal blood vessel, mean ± standard deviation, control 2.1 ± 0.7) of the same compound?
The value was 0.9 ± 0.8.

And the “Sialadenitis (score 0-3)” value ([5]; salivary gland, mean ± standard deviation, control 2.2 ± 0.6)?
The value was 0.9 ± 0.8.

For `C[C@]12C=CC(=O)C=C1CC[C@@H]1[C@@H]2[C@@H](O)C[C@@]2(C)[C@H]1CC[C@]2(O)C(=O)CO` [Prednisolone, prednisolone], which “change in Mac 2 number as compared with the control (in words)” value [4] is on record?
The value was “did not exhibit any significant decrease in Mac 2 number”.

What about the “Mac 2 number” value ([4]; prednisolone 2 mg/kg subcutaneously once a day for 9 weeks, first series, control 7.5 ± 1.5) of the same compound?
The value was 9.4 ± 1.0.

And the “Mac 2 number” value ([4]; prednisolone 2 mg/kg subcutaneously once a day for 9 weeks, second series, control 11.3 ± 1.2)?
Its value is 7.7 ± 1.0.

What about the “Mac 2 number” value ([4]; prednisolone 4 mg/kg subcutaneously once a day for 9 weeks, first series, control 7.5 ± 1.5) of the same compound?
Its value is 7.9 ± 0.7.

And the “Mac 2 number” value ([4]; prednisolone 4 mg/kg subcutaneously once a day for 9 weeks, second series, control 11.3 ± 1.2)?
Its value is 9.1 ± 1.4.

And the “Mac 2 number” value ([4]; prednisolone 8 mg/kg subcutaneously once a day for 9 weeks, first series, control 7.5 ± 1.5)?
The value was 5.8 ± 0.8.
